Legend:
[1] = biological target: Serine/threonine-protein kinase SBK1 (Homo sapiens) (UniProt Q52WX2); settings: Compound concentration 1000.0 nM
[2] = biological target: Rho-associated protein kinase 2 (Homo sapiens) (UniProt O75116); settings: Compound concentration 1000.0 nM
[3] = biological target: Receptor tyrosine-protein kinase erbB-4 (Homo sapiens) (UniProt Q15303); settings: Compound concentration 1000.0 nM
[4] = biological target: Casein kinase I isoform epsilon (Homo sapiens) (UniProt P49674); settings: Compound concentration 1000.0 nM
[5] = biological target: T1, Myotonin-protein kinase (Homo sapiens) (UniProt Q09013); settings: Compound concentration 1000.0 nM
T1 sequence (whole entry): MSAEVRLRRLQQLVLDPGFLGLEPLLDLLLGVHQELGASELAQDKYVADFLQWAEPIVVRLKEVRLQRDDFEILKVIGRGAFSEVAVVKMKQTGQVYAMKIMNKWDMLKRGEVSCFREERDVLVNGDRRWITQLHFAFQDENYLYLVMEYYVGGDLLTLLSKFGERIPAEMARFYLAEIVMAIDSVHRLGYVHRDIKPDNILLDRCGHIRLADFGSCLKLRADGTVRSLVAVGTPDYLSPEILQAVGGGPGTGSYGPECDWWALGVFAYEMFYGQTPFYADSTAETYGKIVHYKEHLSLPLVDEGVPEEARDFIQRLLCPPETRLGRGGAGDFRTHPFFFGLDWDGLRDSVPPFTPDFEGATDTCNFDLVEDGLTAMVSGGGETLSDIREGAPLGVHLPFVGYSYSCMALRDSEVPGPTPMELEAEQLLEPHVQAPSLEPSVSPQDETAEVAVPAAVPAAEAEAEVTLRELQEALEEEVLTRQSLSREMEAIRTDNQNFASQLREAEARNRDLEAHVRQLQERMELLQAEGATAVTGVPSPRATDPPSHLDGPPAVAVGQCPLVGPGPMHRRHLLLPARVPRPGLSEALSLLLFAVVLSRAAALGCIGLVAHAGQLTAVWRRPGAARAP

[6] = test system: Epidermal growth factor receptor (Homo sapiens), P00533 [L858R]; settings: Compound concentration 1000.0 nM
[7] = biological target: Insulin receptor-related protein (Homo sapiens) (UniProt P14616); settings: Compound concentration 1000.0 nM
[8] = biological target: Ephrin type-A receptor 2 (Homo sapiens) (UniProt P29317); settings: Compound concentration 1000.0 nM
Ephrin type-A receptor 2 (Homo sapiens), sequence (P29317 whole entry): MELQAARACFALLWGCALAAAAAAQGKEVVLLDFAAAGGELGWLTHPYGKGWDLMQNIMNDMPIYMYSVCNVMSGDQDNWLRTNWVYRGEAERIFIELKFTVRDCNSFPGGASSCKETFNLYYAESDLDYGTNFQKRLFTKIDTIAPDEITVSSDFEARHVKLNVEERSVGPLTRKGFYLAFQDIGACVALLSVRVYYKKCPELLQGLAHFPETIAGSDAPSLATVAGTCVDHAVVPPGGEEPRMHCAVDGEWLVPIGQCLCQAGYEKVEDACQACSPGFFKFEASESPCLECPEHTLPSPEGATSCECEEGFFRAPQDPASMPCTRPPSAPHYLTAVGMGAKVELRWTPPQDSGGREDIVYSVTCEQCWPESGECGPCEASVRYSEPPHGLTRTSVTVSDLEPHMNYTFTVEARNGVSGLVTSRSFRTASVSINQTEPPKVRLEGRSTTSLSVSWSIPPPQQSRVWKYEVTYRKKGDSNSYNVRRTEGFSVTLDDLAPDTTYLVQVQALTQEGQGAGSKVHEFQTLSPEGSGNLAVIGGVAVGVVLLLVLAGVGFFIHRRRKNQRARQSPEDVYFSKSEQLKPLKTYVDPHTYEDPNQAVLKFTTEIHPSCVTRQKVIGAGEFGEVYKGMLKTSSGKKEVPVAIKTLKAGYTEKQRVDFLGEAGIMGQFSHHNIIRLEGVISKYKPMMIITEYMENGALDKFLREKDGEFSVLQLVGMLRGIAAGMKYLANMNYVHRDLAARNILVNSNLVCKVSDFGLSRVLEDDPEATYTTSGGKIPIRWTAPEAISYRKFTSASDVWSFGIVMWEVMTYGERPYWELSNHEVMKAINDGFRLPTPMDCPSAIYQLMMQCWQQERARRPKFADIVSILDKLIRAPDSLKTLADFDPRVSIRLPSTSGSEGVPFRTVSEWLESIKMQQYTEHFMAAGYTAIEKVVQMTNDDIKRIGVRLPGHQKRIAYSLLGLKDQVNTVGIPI

[9] = biological target: Uncharacterized serine/threonine-protein kinase SBK3 (Homo sapiens) (UniProt P0C264); settings: Compound concentration 1000.0 nM
[10] = biological target: STE20-like serine/threonine-protein kinase (Homo sapiens) (UniProt Q9H2G2); settings: Compound concentration 1000.0 nM
STE20-like serine/threonine-protein kinase (Homo sapiens), sequence (Q9H2G2 whole entry, looked up): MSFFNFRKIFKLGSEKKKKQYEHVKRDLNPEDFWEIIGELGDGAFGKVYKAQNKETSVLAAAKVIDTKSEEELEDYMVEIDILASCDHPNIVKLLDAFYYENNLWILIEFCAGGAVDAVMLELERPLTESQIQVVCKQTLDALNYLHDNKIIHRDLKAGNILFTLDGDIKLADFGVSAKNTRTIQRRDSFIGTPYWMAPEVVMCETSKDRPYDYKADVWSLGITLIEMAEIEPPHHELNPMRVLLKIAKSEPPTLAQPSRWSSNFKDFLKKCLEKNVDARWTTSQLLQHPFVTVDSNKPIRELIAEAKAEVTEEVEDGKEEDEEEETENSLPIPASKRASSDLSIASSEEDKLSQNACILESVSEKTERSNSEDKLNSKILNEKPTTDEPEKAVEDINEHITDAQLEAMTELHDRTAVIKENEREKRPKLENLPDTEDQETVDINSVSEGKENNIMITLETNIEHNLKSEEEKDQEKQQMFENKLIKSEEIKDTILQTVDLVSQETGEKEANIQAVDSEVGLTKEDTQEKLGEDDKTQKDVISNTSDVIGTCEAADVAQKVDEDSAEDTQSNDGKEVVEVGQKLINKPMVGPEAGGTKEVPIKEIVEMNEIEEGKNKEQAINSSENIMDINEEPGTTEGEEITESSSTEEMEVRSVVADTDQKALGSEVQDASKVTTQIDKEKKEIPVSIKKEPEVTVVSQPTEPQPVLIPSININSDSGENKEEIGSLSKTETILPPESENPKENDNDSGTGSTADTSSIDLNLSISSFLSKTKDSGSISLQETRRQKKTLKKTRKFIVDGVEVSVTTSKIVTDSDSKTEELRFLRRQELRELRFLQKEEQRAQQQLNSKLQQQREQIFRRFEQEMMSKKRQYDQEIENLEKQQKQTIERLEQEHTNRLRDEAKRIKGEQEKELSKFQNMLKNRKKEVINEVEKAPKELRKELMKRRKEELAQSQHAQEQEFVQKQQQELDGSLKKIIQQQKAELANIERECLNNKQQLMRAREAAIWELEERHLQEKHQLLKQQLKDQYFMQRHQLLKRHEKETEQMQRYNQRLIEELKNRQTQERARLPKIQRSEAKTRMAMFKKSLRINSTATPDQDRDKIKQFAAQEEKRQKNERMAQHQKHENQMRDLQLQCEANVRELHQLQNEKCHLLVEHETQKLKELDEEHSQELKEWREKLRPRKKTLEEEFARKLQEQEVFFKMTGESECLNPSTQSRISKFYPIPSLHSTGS

[11] = biological target: Receptor tyrosine-protein kinase erbB-3 (Homo sapiens) (UniProt P21860); settings: Compound concentration 1000.0 nM
[12] = biological target: Receptor-type tyrosine-protein kinase FLT3 (Homo sapiens) (UniProt P36888); settings: Compound concentration 1000.0 nM
Receptor-type tyrosine-protein kinase FLT3 (Homo sapiens), sequence (P36888 whole entry): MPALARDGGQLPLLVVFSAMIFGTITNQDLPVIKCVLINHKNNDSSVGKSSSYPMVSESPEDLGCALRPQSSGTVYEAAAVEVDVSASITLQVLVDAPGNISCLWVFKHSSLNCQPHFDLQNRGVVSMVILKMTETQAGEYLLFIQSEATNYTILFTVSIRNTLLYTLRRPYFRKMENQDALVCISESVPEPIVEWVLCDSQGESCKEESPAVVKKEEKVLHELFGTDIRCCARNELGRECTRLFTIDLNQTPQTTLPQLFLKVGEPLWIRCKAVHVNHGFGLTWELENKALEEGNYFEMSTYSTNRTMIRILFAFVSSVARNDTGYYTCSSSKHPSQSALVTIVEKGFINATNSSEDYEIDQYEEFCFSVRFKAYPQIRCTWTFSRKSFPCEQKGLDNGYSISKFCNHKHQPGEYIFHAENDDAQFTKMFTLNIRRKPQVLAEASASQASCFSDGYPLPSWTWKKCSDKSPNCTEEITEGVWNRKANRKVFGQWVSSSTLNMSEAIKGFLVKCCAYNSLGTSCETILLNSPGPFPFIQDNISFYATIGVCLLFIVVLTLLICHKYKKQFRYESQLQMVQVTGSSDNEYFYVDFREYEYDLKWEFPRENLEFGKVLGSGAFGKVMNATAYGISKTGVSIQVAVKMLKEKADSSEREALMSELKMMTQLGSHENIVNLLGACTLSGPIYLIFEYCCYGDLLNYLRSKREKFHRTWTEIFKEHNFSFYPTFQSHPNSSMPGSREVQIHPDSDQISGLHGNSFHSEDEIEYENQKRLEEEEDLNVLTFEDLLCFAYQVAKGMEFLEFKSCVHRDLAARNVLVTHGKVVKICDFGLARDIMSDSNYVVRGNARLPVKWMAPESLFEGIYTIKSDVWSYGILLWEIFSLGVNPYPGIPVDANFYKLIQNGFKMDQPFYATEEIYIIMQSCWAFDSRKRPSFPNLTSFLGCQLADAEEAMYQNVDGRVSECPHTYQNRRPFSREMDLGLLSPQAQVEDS

[13] = biological target: Macrophage-stimulating protein receptor (Homo sapiens) (UniProt Q04912); settings: Compound concentration 1000.0 nM
[14] = biological target: Sodium-dependent dopamine transporter (Homo sapiens, UniProt Q01959); settings: Compound concentration 10.0 uM
[15] = biological target: Sodium-dependent serotonin transporter (Homo sapiens) (UniProt P31645); settings: Compound concentration 10.0 uM
[16] = biological target: Sodium-dependent noradrenaline transporter (Homo sapiens) (UniProt P23975); settings: Compound concentration 10.0 uM
Sodium-dependent noradrenaline transporter (Homo sapiens), sequence (P23975 whole entry): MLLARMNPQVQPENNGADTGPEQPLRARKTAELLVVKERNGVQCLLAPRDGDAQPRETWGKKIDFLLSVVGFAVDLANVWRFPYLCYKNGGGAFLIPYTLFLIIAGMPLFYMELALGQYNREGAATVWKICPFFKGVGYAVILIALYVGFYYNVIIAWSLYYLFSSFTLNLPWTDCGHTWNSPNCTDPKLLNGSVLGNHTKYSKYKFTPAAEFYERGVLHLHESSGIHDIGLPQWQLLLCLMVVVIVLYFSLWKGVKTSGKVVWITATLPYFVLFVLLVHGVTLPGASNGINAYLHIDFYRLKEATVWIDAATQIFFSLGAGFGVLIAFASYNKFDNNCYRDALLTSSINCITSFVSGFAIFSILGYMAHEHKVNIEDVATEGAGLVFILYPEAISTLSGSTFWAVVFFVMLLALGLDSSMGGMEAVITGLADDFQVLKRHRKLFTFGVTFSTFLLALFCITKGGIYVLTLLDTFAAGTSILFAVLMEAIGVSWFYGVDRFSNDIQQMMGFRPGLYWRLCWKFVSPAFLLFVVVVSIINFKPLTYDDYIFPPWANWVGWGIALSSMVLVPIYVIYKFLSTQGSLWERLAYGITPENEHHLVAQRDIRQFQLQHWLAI

[17] = biological target: Receptor-type tyrosine-protein kinase FLT3 (Homo sapiens) (UniProt P36888); settings: Compound concentration 1000.0 nM; remark: listed apart in the source
[18] = biological target: Serine/threonine-protein kinase DCLK1 (Homo sapiens) (UniProt O15075); settings: Compound concentration 1000.0 nM
[19] = test system: Hepatocyte growth factor receptor (Homo sapiens), P08581 [Y1235D]; settings: Compound concentration 1000.0 nM
[20] = test system: Phosphatidylinositol 4,5-bisphosphate 3-kinase catalytic subunit alpha isoform (Homo sapiens), P42336 [Q546K]; settings: Compound concentration 1000.0 nM
[21] = biological target: T2, Mitogen-activated protein kinase kinase kinase 7 (Homo sapiens) (UniProt O43318); settings: Compound concentration 1000.0 nM
T2 sequence (whole entry): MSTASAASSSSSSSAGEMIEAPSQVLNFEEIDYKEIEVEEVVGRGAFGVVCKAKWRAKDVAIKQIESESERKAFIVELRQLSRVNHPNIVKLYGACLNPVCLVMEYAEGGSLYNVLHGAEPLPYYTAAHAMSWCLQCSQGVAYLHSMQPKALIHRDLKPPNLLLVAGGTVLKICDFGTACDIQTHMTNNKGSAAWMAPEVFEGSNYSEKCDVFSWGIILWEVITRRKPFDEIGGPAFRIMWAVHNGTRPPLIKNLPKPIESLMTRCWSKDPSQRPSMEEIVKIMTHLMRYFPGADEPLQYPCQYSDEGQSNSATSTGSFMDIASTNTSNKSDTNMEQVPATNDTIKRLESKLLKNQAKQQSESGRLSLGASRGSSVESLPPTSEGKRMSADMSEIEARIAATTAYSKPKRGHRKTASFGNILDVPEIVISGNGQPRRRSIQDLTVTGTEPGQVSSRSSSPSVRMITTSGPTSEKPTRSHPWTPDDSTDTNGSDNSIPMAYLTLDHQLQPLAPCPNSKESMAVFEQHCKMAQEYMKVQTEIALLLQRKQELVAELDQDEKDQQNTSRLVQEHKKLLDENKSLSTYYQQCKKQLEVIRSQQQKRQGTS

[22] = biological target: Phosphatidylinositol 5-phosphate 4-kinase type-2 beta (Homo sapiens) (UniProt P78356); settings: Compound concentration 1000.0 nM
[23] = biological target: High affinity nerve growth factor receptor (Homo sapiens) (UniProt P04629); settings: Compound concentration 1000.0 nM

Receptor tyrosine-protein kinase erbB-4 (Homo sapiens), sequence (Q15303 whole entry, canonical isoform): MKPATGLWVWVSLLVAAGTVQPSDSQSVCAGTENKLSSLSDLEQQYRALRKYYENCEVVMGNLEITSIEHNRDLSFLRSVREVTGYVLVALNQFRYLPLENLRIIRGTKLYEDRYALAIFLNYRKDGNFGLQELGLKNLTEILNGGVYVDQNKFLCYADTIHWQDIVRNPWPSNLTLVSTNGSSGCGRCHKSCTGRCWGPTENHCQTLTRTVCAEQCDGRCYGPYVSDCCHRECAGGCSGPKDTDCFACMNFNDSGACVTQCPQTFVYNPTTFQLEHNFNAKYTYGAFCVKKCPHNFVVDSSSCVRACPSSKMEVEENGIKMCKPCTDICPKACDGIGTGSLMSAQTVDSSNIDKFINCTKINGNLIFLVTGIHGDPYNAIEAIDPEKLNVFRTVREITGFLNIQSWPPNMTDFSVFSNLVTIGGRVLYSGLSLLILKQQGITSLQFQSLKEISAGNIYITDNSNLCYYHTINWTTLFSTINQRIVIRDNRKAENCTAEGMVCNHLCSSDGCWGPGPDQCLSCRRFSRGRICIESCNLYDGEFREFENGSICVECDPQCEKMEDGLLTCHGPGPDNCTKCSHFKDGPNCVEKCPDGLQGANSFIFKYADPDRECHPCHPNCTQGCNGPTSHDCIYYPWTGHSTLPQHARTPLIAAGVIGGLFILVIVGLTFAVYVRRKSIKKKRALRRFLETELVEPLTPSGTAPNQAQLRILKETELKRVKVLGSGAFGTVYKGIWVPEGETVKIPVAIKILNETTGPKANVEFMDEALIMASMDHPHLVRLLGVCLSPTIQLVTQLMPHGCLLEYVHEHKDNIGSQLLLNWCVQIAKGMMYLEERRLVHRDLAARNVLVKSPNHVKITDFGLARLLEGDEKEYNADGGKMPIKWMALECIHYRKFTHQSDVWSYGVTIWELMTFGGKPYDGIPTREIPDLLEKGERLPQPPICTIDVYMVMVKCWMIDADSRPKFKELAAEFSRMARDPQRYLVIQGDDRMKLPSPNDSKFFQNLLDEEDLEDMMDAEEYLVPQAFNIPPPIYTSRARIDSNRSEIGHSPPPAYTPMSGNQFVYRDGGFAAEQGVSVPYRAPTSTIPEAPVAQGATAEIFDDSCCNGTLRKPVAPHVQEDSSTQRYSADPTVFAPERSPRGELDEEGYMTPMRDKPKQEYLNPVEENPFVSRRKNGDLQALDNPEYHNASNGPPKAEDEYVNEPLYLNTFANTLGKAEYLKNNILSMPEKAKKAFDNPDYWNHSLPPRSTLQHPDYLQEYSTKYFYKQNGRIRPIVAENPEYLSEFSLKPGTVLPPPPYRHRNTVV

## CN(C)C(=O)Cn1cc(-c2nc(C3(c4ccc(-c5cnc(N)nc5)cc4)CC3)no2)cn1 [BI 0153]
[1]
  residual activity: 83%
[2]
  residual activity: 89%
[3]
  residual activity: 100%
[4]
  residual activity: 100%
[5]
  residual activity: 82%
[6]
  residual activity: 86%
[7]
  residual activity: 100%
[8]
  residual activity: 89%
[9]
  residual activity: 99%
[10]
  residual activity: 77%
[11]
  residual activity: 87%
[12]
  residual activity: 90%
[13]
  residual activity: 95%
[14]
  inhibition: 52.4%
[15]
  inhibition: 5.35%
[16]
  inhibition: 8.33%
[17]
  residual activity: 81%
[18]
  residual activity: 88%
[19]
  residual activity: 98%
[20]
  residual activity: 100%
[21]
  residual activity: 72%
[22]
  residual activity: 71%
[23]
  residual activity: 100%

## CN(C)C(=O)Cn1cc(-c2nc([C@@](C)(c3ccc(-c4cnc(N)nc4)cc3)C3CC3)no2)cn1 [BI 665915]
[1]
  residual activity: 87%
[2]
  residual activity: 100%
[3]
  residual activity: 100%
[4]
  residual activity: 97%
[5]
  residual activity: 100%
[6]
  residual activity: 100%
[7]
  residual activity: 99%
[8]
  residual activity: 100%
[9]
  residual activity: 71%
[10]
  residual activity: 94%
[11]
  residual activity: 95%
[12]
  residual activity: 97%
[13]
  residual activity: 79%
[14]
  inhibition: 60.7%
[15]
  inhibition: 6.28%
[16]
  inhibition: 18.9%
[17]
  residual activity: 82%
[18]
  residual activity: 71%
[19]
  residual activity: 96%
[20]
  residual activity: 95%
[21]
  residual activity: 50%
[22]
  residual activity: 100%
[23]
  residual activity: 70%

— ChEMBL document CHEMBL4507276 (2021)
